Laboratory results reported in patent US20240108740A1, “THERAPEUTIC COMPOSITIONS INCLUDING SPN10 AND USES THEREOF” (Stealth BioTherapeutics Inc., priority 2022, published 2024).
Residues, ends and D or L forms follow the SMILES beside them.

Key:
Sprague-Dawley rats = test: Example 5: unilateral ureteral obstruction (UUO), 14 days; format: in vivo, rat
Method: UUO will be induced in Sprague-Dawley rats. The rats will be treated with saline (i.p., n=6), peptide conjugates (1 mg/kg i.p., n=6), aromatic-cationic peptides (e.g., an equivalent molar dose of aromatic-cationic peptide based on the concentration of the aromatic-cationic peptide administered in the peptide conjugate treatment group), SPN10(s) (e.g., an equivalent molar dose of SPN10 based on the concentration of SPN10 administered in the peptide conjugate treatment group), or SPN10(s) in combination with aromatic-cationic peptides (e.g., an equivalent molar dose of SPN10 based on the concentration of SPN10 administered in the peptide conjugate treatment group and an equivalent molar dose of aromatic-cationic peptide based on the concentration of aromatic-cationic peptide administered in the peptide conjugate treatment group) one day prior to induction of UUO, and once daily for 14 days after UUO induction. Rats will be sacrificed and the kidneys removed, embedded in paraffin, and sectioned. The sections will be treated with an anti-CD36 polyclonal IgG (Santa Cruz, sc-9154; diluted 1:100 with blocking serum) at room temperature for 1.5 hours. The slides will then be incubated with the second antibody conjugated with biotin (anti-rabbit IgG-B1; ABC kit, PK-6101) at room temperature for 30 min. The slides will then be treated with avidin, developed with DAB and counterstained with 10% hematoxylin. The contralateral unobstructed kidney will serve as the control for each animal.
Rats will then be sacrificed, kidneys removed, embedded in paraffin and sectioned. Slides will be incubated with anti-HNE rabbit IgG and a biotin-linked anti-rabbit IgG will be used as secondary antibody. The slides will be developed with DAB. Lipid peroxidation, which is increased by UUO, is anticipated to be reduced by treatment with peptide conjugates, aromatic-cationic peptides, or SPN10(s) (with or without aromatic-cationic peptides).
Rats will then be sacrificed, kidneys removed, embedded in paraffin and sectioned. To quantify nuclei with fragmented DNA, TUNEL assay will be performed with in situ TUNEL kit. Slides will be developed with DAB and counterstained with 10% hematoxylin. […] It is anticipated that there will be a significant increase in apoptotic cells observed in the obstructed kidney from saline-treated animals when compared to the contralateral unobstructed control.
Macrophage infiltration and interstitial fibrosis are anticipated to be prevented by treatment with peptide conjugates, aromatic-cationic peptides, or SPN10(s) (alone or in combination with aromatic-cationic peptides). Rats will be treated with either saline (n=6), peptide conjugates (1 mg/kg i.p., n=6), aromatic-cationic peptides (e.g., an equivalent molar dose of aromatic-cationic peptide based on the concentration of the aromatic-cationic peptide administered in the peptide conjugate treatment group), SPN10(s) (e.g., an equivalent molar dose of SPN10 based on the concentration of SPN10 administered in the peptide conjugate treatment group) or SPN10(s) in combination with aromatic-cationic peptides (e.g., an equivalent molar dose of SPN10 based on the concentration of SPN10 administered in the peptide conjugate treatment group and an equivalent molar dose of aromatic-cationic peptide based on the concentration of aromatic-cationic peptide administered in the peptide conjugate treatment group) one day prior to induction of UUO, and once daily for 14 days after UUO. Rats will then be sacrificed, the kidneys removed, embedded in paraffin and sectioned. Slides will be treated with monoclonal antibody for ED1 macrophage (1:75; Serotec). Horseradish peroxidase-linked rabbit anti-mouse secondary antibody (Dako) will be used for macrophage detection. Sections will then be counterstained with 10% hematoxylin. […]

Sprague Dawley rats = test: Example 49: progression of tissue damage following a burn; settings: rat, in vivo
Method: Sprague Dawley rats will be randomized into the following groups; sham-burn (SB), burn with saline treatment (B), burn with peptide conjugate-treatment (BP), burn with aromatic-cationic peptides (BP2), burn with SPN10(s) (BP3), and burn with SPN10(s)+aromatic-cationic peptides (BP4). Band BP, BP2, BP3 and BP4 animals will receive a 30% total body surface area full thickness burns by immersing the dorsal body into 100° C. water for 12 seconds with immediate fluid resuscitation. […] Wound re-epithelialization, contraction, and depth will be assessed via gross morphology and histologically over a period of 21 days. […]
Apoptosis of hair follicles of the skin will be measured using TUNEL labeling and activated caspase-3 immunostaining using skin samples obtained between 0 and 48 hours post-burn. Quantification of TUNEL and caspase-3 staining will be done on digitally acquired images at high power. The number of positive cells per high power field will be determined, and compared among the groups.
[…] mapping will be performed using Doppler imaging to assess wound blood flow. Two hours post-burn, the dorsum of the animal will be imaged on a scanning laser Doppler apparatus to quantify the superficial blood flow distribution in the skin within and outside of the burn area. For […] mapping, 100 male Sprague-Dawley rats will be used. […]

N=C(N)NCCC[C@H](NC(=O)[C@@H](N)Cc1c[nH]c2ccccc12)C(=O)N[C@@H](Cc1c[nH]c2ccccc12)C(=O)N[C@@H](CCCCN)C(N)=O [SPN10, H-L-Trp-L-Arg-L-Trp-L-Lys-NH2] (H-WRWK-NH2)
CD36 expression in tubular cells after UUO (Sprague-Dawley rats; anti-CD36 immunostaining): significant reduction in CD36 expression | HNE staining in obstructed kidney (Sprague-Dawley rats; compared to saline-treated rats): significantly less HNE staining | tubular dilation after UUO (Sprague-Dawley rats; one day prior to UUO and once daily for 14 days): Tubular dilation is also anticipated | interstitial fibrosis in obstructed kidney (Masson's trichrome) (Sprague-Dawley rats; rat, in vivo): significantly less fibrosis | lipid peroxidation in kidney after UUO (Sprague-Dawley rats; rat, in vivo): reduced | macrophage infiltration in obstructed kidney (ED1) (Sprague-Dawley rats; rat, in vivo): significantly reduced | number of apoptotic cells in obstructed kidney (TUNEL) (Sprague-Dawley rats; rat, in vivo): significantly reduced | up-regulation of CD36 associated with tubular cell apoptosis (Sprague-Dawley rats; rat, in vivo): significantly inhibited | burn-induced apoptosis and blood flow (Sprague Dawley rats): reduce burn-induced apoptosis and blood flow | wound healing and progression of burn injuries (Sprague Dawley rats): accelerate wound healing and attenuate the progression of burn injuries
